The source of these data is patent publication US11028088B2, “Modulators of BTK proteolysis and methods of use” (Yale University, priority 2018, dated 2021).

Molecules are shown by their SMILES. Where two headings read alike, the source gives them in different places.

The target of assay [1] is BTK (Homo sapiens, UniProt Q06187). The experiment in a line: BTK degradation in NAMALWA cells (immunoblot). It is filed as cell-based. The arrangement: host or cells: NAMALWA. As to conditions: NAMALWA cells; for DC50: concentration needed to degrade 50% of the total pool of BTK; for Max: maximal BTK degradation, at 1.0 μM. The protocol:
NAMALWA and Jurkat cell lines were purchased from ATCC and cultured according to supplier guidelines at 37° C. […] Wild-type and C481S BTK XLA cell lines were cultured as previously described (39). Written, informed consent was obtained prior to the collection of cells from CLL patients using the IWCLL2008 criteria. Isolation of mononuclear cells from peripheral blood was prepared using density gradient centrifugation. B-cells were then negatively selected ([…] Technologies). […] They were maintained at 37° C. in 5% CO2.
Lysates were spun at 15,000×g for 10 min at 4° C. and supernatant was quantified for total protein content using the Pierce BCA Protein Assay (Thermo Fisher Scientific).
Either anti-rabbit or anti-mouse HRP-conjugated secondary antibodies (Pierce) were incubated with the membranes for 1 h at room temperature at 1:10,000 dilutions in 5% non-fat milk in IX TBS-T. Imaging was performed using the ECL Prime chemiluminescent western blot detection reagents (Amersham) followed by visualization with the Bio-Rad ChemiDoc imaging instrument. All western blots were subsequently processed and quantified using the accompanying Bio-Rad Image Lab software. […] All antibodies were used at 1:1,000 dilutions in 5% non-fat milk in 1×TBS-Tween (TBS-T) or Blotto blocker (Thermo Scientific) unless otherwise noted in supplier specifications.
On the technique in general: In western blotting, separated proteins are transferred to a membrane and probed.

Assay [2] addresses T1, HER3 (Homo sapiens, UniProt P21860).
T1 construct: endogenous in cells; host or cells: OVCAR8
Kind of assay: HER3/ERBB3 degradation (western blot, OVCAR8 cells). It is filed as cell-based. The protocol:
FIG. 10 illustrates a Western blot of Compound 102-related degradation of ERBB3.
In various embodiments, treatment with PROTAC was performed in one of two ways: 1) For experiments involving >16 h exposure to compound, a 1000× stock was added to cells followed by gentle agitation; 2) For shorter treatments, a 2× stock was added to an equal volume of cells to ensure uniform drug exposure. For immortalized cell lines, 2×10^6 cells per treatment condition were collected and washed once with ice cold PBS (IX), followed by lysis in buffer containing 20 mM Tris [pH 8.0], 0.25% sodium deoxycholate, 1% Triton X-100, supplemented with protease (Roche) and phosphatase inhibitors (10 mM NaF, 2 mM Na3VO4, 10 mM β-glycerophosphate, 10 mM Na-pyrophosphate). Lysates were spun at 15,000×g for 10 min at 4° C. and supernatant was quantified for total protein content using the Pierce BCA Protein Assay (Thermo Fisher Scientific). 30 μg of protein was loaded onto 12% SDS-PAGE gels or 4-15% Mini-PROTEAN TGX precast gradient gels (Bio-Rad), transferred onto nitrocellulose membranes, and probed with the specified primary antibodies overnight with rocking at 4° C. in 1×TBS-T containing 5% non-fat milk.
Either anti-rabbit or anti-mouse HRP-conjugated secondary antibodies (Pierce) were incubated with the membranes for 1 h at room temperature at 1:10,000 dilutions in 5% non-fat milk in IX TBS-T. Imaging was performed using the ECL Prime chemiluminescent western blot detection reagents (Amersham) followed by visualization with the Bio-Rad ChemiDoc imaging instrument. All western blots were subsequently processed and quantified using the accompanying Bio-Rad Image Lab software. Primary antibodies used were: Anti-actin antibody (Cat. #MA 1-744) purchased from ThermoFisher Scientific; anti-BTK (Cat. #8547), anti-pBTK (Y223, Cat. #5082), anti-ITK (Cat. #2380), anti-GAPDH (Cat. #5179), anti-IKZF1 (Cat. #9034), and anti-IKZF3 (Cat. #15103) antibodies purchased from Cell Signaling Technology. All antibodies were used at 1:1,000 dilutions in 5% non-fat milk in 1×TBS-Tween (TBS-T) or Blotto blocker (Thermo Scientific) unless otherwise noted in supplier specifications.

Chain of BTK (Q06187 whole entry): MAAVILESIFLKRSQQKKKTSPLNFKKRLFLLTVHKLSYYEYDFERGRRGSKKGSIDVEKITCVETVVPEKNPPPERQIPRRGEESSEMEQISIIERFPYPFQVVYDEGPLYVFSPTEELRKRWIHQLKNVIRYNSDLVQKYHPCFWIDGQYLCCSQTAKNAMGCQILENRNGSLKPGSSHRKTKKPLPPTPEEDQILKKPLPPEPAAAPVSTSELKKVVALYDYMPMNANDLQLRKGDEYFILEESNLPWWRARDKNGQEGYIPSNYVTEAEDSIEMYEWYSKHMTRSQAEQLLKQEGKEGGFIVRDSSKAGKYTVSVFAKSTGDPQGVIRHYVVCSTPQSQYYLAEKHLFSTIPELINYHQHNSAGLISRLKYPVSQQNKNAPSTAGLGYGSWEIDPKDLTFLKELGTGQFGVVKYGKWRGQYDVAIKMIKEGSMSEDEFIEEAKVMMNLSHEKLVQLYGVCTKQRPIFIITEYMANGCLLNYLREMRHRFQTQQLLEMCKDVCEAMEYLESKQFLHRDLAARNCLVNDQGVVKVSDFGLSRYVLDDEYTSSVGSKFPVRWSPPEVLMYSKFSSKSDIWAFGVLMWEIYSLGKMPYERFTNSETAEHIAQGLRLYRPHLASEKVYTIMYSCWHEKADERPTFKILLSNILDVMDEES
T1 sequence (P21860 20-1342): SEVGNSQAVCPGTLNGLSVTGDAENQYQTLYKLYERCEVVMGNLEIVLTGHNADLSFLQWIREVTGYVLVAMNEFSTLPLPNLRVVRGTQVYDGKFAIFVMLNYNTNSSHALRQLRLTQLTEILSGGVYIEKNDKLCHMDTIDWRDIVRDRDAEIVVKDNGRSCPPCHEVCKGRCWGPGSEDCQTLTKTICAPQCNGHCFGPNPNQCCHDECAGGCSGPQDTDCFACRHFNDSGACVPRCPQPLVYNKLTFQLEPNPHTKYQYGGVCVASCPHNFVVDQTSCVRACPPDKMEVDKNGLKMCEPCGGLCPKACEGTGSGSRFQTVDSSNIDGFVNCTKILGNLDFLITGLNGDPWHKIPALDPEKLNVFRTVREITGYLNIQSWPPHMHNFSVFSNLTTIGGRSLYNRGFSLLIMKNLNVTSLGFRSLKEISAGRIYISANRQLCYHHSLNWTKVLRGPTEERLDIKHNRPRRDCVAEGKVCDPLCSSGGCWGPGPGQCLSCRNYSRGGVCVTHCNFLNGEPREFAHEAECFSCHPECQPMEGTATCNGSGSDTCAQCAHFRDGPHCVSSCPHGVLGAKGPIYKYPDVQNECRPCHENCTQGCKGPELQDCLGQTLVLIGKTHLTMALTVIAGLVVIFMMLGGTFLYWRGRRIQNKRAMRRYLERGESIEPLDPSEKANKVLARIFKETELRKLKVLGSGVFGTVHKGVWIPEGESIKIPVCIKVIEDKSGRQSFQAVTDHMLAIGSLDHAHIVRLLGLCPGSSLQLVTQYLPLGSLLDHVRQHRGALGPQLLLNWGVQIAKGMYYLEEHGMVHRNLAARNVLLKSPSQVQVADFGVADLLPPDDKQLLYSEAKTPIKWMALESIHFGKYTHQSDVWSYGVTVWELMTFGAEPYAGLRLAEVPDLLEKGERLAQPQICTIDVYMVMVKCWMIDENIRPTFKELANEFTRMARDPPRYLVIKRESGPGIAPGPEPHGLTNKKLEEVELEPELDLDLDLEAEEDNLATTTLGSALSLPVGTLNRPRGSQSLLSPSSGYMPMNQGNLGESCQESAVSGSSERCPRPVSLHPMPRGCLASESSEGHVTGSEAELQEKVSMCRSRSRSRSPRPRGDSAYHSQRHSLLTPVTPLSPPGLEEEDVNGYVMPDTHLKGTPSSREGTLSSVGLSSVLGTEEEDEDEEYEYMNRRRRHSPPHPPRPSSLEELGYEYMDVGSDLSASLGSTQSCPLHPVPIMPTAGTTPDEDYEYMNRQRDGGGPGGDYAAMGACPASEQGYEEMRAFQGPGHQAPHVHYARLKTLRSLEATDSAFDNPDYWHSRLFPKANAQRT

Turning to `Cc1ncsc1-c1ccc(CNC(=O)[C@@H]2C[C@@H](O)CN2C(=O)[C@@H](NC(=O)CCCCCOCCOCCOCCOCCCCCCN2CCC(n3nc(-c4ccc(Oc5ccccc5)cc4)c4c(N)ncnc43)CC2)C(C)(C)C)cc1` [Compound 119, (2S,4R)-1-((S)-26-(4-(4-amino-3-(4-phenoxyphenyl)-1H-pyrazolo[3,4-d]pyrimidin-1-yl)piperidin-1-yl)-2,2-dimethyl-5-oxo-11,14,17,20-tetraoxa-4-azahexacosanecarbonyl)-4-hydroxy-N-(4-(4-methylthiazol-5-yl)benzyl)pyrrolidine-2-carboxamide], the DC50 (usually the midpoint of the concentration-degradation curve) in assay [1] is recorded as “No Degradation”. For the same molecule, the “HER3 Degradation” value in assay [2] is recorded as “No”.
The like results for `Cc1ncsc1-c1ccc(CNC(=O)[C@@H]2C[C@@H](O)CN2C(=O)[C@@H](NC(=O)COCCOCCOCCCCCCN2CCC(n3nc(-c4ccc(Oc5ccccc5)cc4)c4c(N)ncnc43)CC2)C(C)(C)C)cc1` [Compound 110, (2S,4R)-1-((S)-19-(4-(4-amino-3-(4-phenoxyphenyl)-1H-pyrazolo[3,4-d]pyrimidin-1-yl)piperidin-1-yl)-2,2-dimethyl-5-oxo-7,10,13-trioxa-4-azanonadecanecarbonyl)-4-hydroxy-N-(4-(4-methylthiazol-5-yl)benzyl)pyrrolidine-2-carboxamide] were, in that order, “No Degradation” and “No”.
In the case of `Nc1ncnc2c1c(-c1ccc(Oc3ccccc3)cc1)nn2C1CCN(CCCCCCOCCOCC(=O)Nc2cccc3c2C(=O)N(C2CCC(=O)NC2=O)C3=O)CC1` (stereo not drawn) [Compound 104, 2-[2-[6-[4-[4-amino-3-(4-phenoxyphenyl)pyrazolo[3,4-d]pyrimidin-1-yl]-1-piperidyl]hexoxy]ethoxy]-N-[2-(2,6-dioxo-3-piperidyl)-1,3-dioxo-isoindolin-4-yl]acetamide], the “degradation of BTK at 1.0 μM” value in assay [1] (1.0 μM) is “nearly complete degradation”. Also, in assay [1] (read-out: DC50), the DC50 worked out at 0.0806 µM. The Max in assay [1] was determined as 96%. For the same molecule, in assay [2], the “HER3 Degradation” value is reported as “No”.
Regarding `Cc1ncsc1-c1ccc(CNC(=O)[C@@H]2C[C@@H](O)CN2C(=O)[C@@H](NC(=O)COCCOCCOCCOCCCCCCN2CCC(n3nc(-c4ccc(Oc5ccccc5)cc4)c4c(N)ncnc43)CC2)C(C)(C)C)cc1` [Compound 115, (2S,4R)-1-((S)-22-(4-(4-amino-3-(4-phenoxyphenyl)-1H-pyrazolo[3,4-d]pyrimidin-1-yl)piperidin-1-yl)-2,2-dimethyl-5-oxo-7,10,13,16-tetraoxa-4-azadocosanecarbonyl)-4-hydroxy-N-(4-(4-methylthiazol-5-yl)benzyl)pyrrolidine-2-carboxamide], the DC50 in assay [1] (read-out: DC50) came out at 0.231 µM. The same molecule returned a Max in assay [1] of 32%. In addition, the “HER3 Degradation” value in assay [2] is reported as “No”.
In the case of `Cc1ncsc1-c1ccc(CNC(=O)[C@@H]2C[C@@H](O)CN2C(=O)[C@@H](NC(=O)CCCCCOCCOCCOCCCCCCN2CCC(n3nc(-c4ccc(Oc5ccccc5)cc4)c4c(N)ncnc43)CC2)C(C)(C)C)cc1` [Compound 116, (2S,4R)-1-((S)-23-(4-(4-amino-3-(4-phenoxyphenyl)-1H-pyrazolo[3,4-d]pyrimidin-1-yl)piperidin-1-yl)-2,2-dimethyl-5-oxo-11,14,17-trioxa-4-azatricosanecarbonyl)-4-hydroxy-N-(4-(4-methylthiazol-5-yl)benzyl)pyrrolidine-2-carboxamide], in assay [1], the DC50 entry is “No Degradation”. In addition, the “HER3 Degradation” value in assay [2] was “No”.
Regarding `C=CC(=O)Nc1cc(-c2nn(C3CCN(CCCCOCCCCOCC(=O)Nc4cccc5c4C(=O)N(C4CCC(=O)NC4=O)C5=O)CC3)c3ncnc(N)c23)ccc1Oc1ccccc1` (stereo not drawn) [Compound 122, N-(5-(4-amino-1-(1-(4-(4-(2-(2-(2,6-dioxopiperidin-3-yl)-1,3-dioxoisoindolin-4-ylamino)-2-oxoethoxy)butoxy)butyl)piperidin-4-yl)-1H-pyrazolo[3,4-d]pyrimidin-3-yl)-2-phenoxyphenyl)acrylamide], the DC50 result in assay [1] was “No Degradation”. Besides, in assay [2], the “HER3 Degradation” value is on record as “No”.
